In patent US6086880A, “Rotavirus peptide compositions and methods of use” (The University of Saskatchewan, priority 1993, dated 2000):
No end group written: not given here.

What was measured:
BRV strain C486 = test: Prophylactic oral 232-255 peptide in neonatal mice before challenge; type: in vivo; design: key to Diarrheal Score: 0: no sign of diarrhea in live mice, or on necropsy; +: no external signs of diarrhea but semi-liquid colon contents at autopsy; ++: fluid was apparent on palpation of the abdomen and the colon was filled with liquid feces and gas; +++: the external anal region was soiled with feces and intestinal fluid was present on palpation; ++++: liquid feces were present around the anal region and on palpation of the abdomen intestinal fluid was present and oozed from the anus; severe dehydration, internal liquid content in colon and caecum and distention due to accumulation of gas; settings: for Diarrheal Score: about one hour before 10^4 pfu; for Virus Titre: mouse intestines; for Plasma D-Xylose: no challenge: 119
Procedure: The 232-255 peptide synthesized in Example 7 was diluted serially in Eagle's Minimal Essential Medium. The peptide solutions of various dilutions were administered in 100 μl dosages to neonatal mice by oral administration. The pups were born of rotavirus-free strain CD-1 dams and administration was at 7 days of age (when the pups weigh about 4 g). Approximately one hour later the mice were challenged with 10^4 pfu of BRV strain C486. Clinical protection was scored as described in Example 6. Diarrhea was scored clinically as well as on necropsy, and plasma D-xylose was determined by administering 100 μl of 5% w/v D-xylose solution, sacrificing the mice two hours later, collecting the blood and determining plasma D-xylose concentration as described above. Virus titers were determined in the mouse intestines by suspending in MEM and homogenizing for virus titration. Mice which received no challenge had plasma D-xylose levels of 119 μg/100 μl and zero viral titers.

VP6 45 kd capsid protein = test: Binding of 232-255 peptide to VP6 of purified virus (laddering on polyacrylamide gel electrophoresis)
Excerpt: Laddering occurred both at the VP6 monomeric molecular weight of 45 kd and at the aggregate molecular weights of 90 kd and 135 kd regions. The increment in the ladder steps matched the MW of the 232-255 peptide. Trypsin treatment of the virus/peptide complex reduced the ladder to a virus profile identical with that of the trypsin-treated virus. The ladder could be detected with antisera produced against the synthetic peptide.

trypsin = test: Trypsin susceptibility and competition with intact VP4 for trypsin; type: biochemical; settings: for cleavage of VP4 by trypsin in presence of peptide: FIG. 8
Procedure: Susceptibility of the synthetic peptide to trypsin was confirmed by reaction with trypsin followed by electrophoresis. […] It was also established that the peptide could compete with intact VP4 for the enzyme. This was determined by measuring the ability of increasing concentrations of the synthetic peptide to reduce the amount of VP4 cleaved into the two products of molecular weight 60 kd and 28 kd.

[1] = test system: infectious virus on MA104 cells; test: Plaque reduction by 232-255 peptide mixed with infectious virus on MA104 cells; type: cell-based; settings: 100 pfu virus with 100 μg, 200 μg and 300 μg peptide
Procedure: In a protocol similar to a standard plaque reduction assay, MA104 cells were treated with 100 pfu of the virus in the absence of and in the presence of 100 μg, 200 μg and 300 μg of the 232-255 peptide.

[2] = test system: Monoclonal antibody 10D207; test: ELISA reactivity of synthetic peptides with monoclonal antibody 10D207; type: binding; settings: reciprocal of the dilution giving a 50% end point
Procedure: (§1) The reactivity and specificity of the synthetic peptides were determined by ELISA using either anti-VP7 monospecific VP7 serum or monoclonal antibodies specific for the various regions of VP7 and by adsorption blocking assays. […] As shown in the table, while all of the peptides were immunoreactive with the antiserum, only the peptides representing positions 247-259 and 275-295 were specifically immunoreactive with monoclonals directed to particular determinants.
(§2) ^a Antibody titers were determined by ELISA and are expressed as the
(§3) reciprocal of the dilution giving a 50% end point.

[3] = test system: Monoclonal antibody 11D12-6; test: ELISA reactivity of synthetic peptides with monoclonal antibody 11D12-6; type: binding; settings: reciprocal of the dilution giving a 50% end point
Procedure: as §1, §2, §3

[4] = test system: Monospecific anti-glycoprotein (VP7) serum; test: ELISA reactivity of synthetic peptides with monospecific anti-VP7 serum; type: binding; settings: reciprocal of the dilution giving a 50% end point
Procedure: as §1, §2, §3

[5] = test system: virus attachment to MA104 cells; test: Adsorption blocking assay: inhibition of attachment of virus to MA104 cells; type: cell-based; settings: FIG. 5
Procedure: as §1

[6] = test system: bovine rotavirus isolate C486; test: 50% plaque reduction assay on sera of mice immunized with KLH-conjugated VP7 peptides; type: in vivo, CD-1 mice; settings: sera of mice given KLH-conjugated peptides; FIG. 7
Procedure: The sera obtained in Example 3 were tested for their ability to neutralize the infectivity of the bovine rotavirus isolate C486 using a standard 50% plaque reduction assay. In this assay, virus dilutions representing 30-50 PFU were mixed 1:1 with various dilutions of antibody and incubated for 1 hour at 37° C. Virus attachment to MA104 monolayers was allowed to proceed at 37° C. for 2 hours before the virus inoculum was removed; the cells were washed with MEM and then overlaid with 1.6% Bacto-agar (Difco) diluted in MEM and supple-mented with 5 μg of pancreatin per ml, 0.7% of a 1:1000 neutral red stock solution, and 0.1% DEAE-dextran. Plaques appeared after 5 to 6 days of incubation at 37° C.

[7] = test system: Monoclonal antibody 4B5-5; test: ELISA reactivity of synthetic peptides with monoclonal antibody 4B5-5; type: binding; settings: reciprocal of the dilution giving a 50% end point
Procedure: as §1, §2, §3

[8] = test system: Monoclonal antibody 11D10-4; test: ELISA reactivity of synthetic peptides with monoclonal antibody 11D10-4; type: binding; settings: reciprocal of the dilution giving a 50% end point
Procedure: as §1, §2, §3

NIAPASIVSRNIVYTRAQPNDIA [Peptide 232-255]
Diarrheal Score (BRV strain C486; 100 μg peptide oral): +++ | Virus Titre (BRV strain C486; 100 μg peptide oral): 1.2 × 10^3 PFU/ml | Plasma D-Xylose (BRV strain C486; 100 μg peptide oral): 92 μg/100 μl | Diarrheal Score (BRV strain C486; 250 μg peptide oral): ++ | Virus Titre (BRV strain C486; 250 μg peptide oral): 4.0 × 10^2 PFU/ml | Plasma D-Xylose (BRV strain C486; 250 μg peptide oral): 70 μg/100 μl | Diarrheal Score (BRV strain C486; 500 μg peptide oral): 0 | Virus Titre (BRV strain C486; 500 μg peptide oral): 0 PFU/ml | Plasma D-Xylose (BRV strain C486; 500 μg peptide oral): 101 μg/100 μl | Diarrheal Score (BRV strain C486; 1000 μg peptide oral): 0 | Virus Titre (BRV strain C486; 1000 μg peptide oral): 0 PFU/ml | Plasma D-Xylose (BRV strain C486; 1000 μg peptide oral): 112 μg/100 μl | laddering of VP6 on polyacrylamide gel electrophoresis (VP6 45 kd capsid protein; 25 μg peptide with 2 μg purified virus): laddering was not apparent | laddering of VP6 on polyacrylamide gel electrophoresis (VP6 45 kd capsid protein; 100 μg peptide with 2 μg purified virus, 30 minutes at 37° C.): showed a laddering effect | cleavage of VP4 by trypsin in presence of peptide (trypsin; 25 μg (232-255)/25 μg VP4): complete cleavage of VP4 | susceptibility of the peptide to trypsin (trypsin; reaction with trypsin followed by electrophoresis): cleaved by trypsin in a dose-dependent manner | cleavage of VP4 by trypsin in presence of peptide (trypsin; synthetic peptide increased to 200 μg): intact VP4 is evident | plaque reduction [1]: capable of plaque reduction in a dose-dependent manner

RNCKKLGPRENVA [p247-259]
Antibody titer (ELISA), monoclonal antibody 10D207 with synthetic peptide [2]: 20 | Antibody titer (ELISA), monoclonal antibody 11D12-6 with synthetic peptide [3]: 100 | Antibody titer (ELISA), monospecific anti-glycoprotein (VP7) serum with synthetic peptide [4]: 1,000 | ability to inhibit attachment of virus to MA104 cells [5]: able to block virus attachment | virus-neutralizing antibodies induced (50% plaque reduction assay) [6]: induced virus-neutralizing antibodies | Antibody titer (ELISA), monoclonal antibody 4B5-5 with synthetic peptide [7]: 5,000 | Antibody titer (ELISA), monoclonal antibody 11D10-4 with synthetic peptide [8]: 4,000

YQQTDEANK [p174-183]
Antibody titer (ELISA), monoclonal antibody 10D207 with synthetic peptide [2]: 10 | Antibody titer (ELISA), monoclonal antibody 11D12-6 with synthetic peptide [3]: 10 | Antibody titer (ELISA), monospecific anti-glycoprotein (VP7) serum with synthetic peptide [4]: 2,500 | Antibody titer (ELISA), monoclonal antibody 4B5-5 with synthetic peptide [7]: 50 | Antibody titer (ELISA), monoclonal antibody 11D10-4 with synthetic peptide [8]: 10
